Assay results from patent publication US20030109567A1, “Novel angiogenesis inhibitor” (RIKEN, priority 2001, published 2003).

Experiment: Solubility (physicochemical properties)
Protocol: The syrup was dissolved in chloroform 10 ml and applied to a silica gel column charged with chloroform (4 cm diameter, 60 cm length). Initially, elution was performed with chloroform 500 ml, then with each 500 ml of a chloroform/methanol solution having a successively changed mixing ratio (100:0, 100:2, 50:1, 20:1, 10:1, 5:1, 1:1). The compound of the present invention, RKB-3134A, was eluted in a fraction with the chloroform/methanol solution (50:1). The fraction was concentrated under reduced pressure to give a brown syrup 1.4 g. Then, the brown syrup 1.4 g was dissolved in a methanol/acetonitrile solution (1:1, 14 ml) and made into aliquots, and purified by high performance liquid chromatography (acetonitrile : water=2:8→acetonitrile : water=1:1; linear gradient (30 minutes), flow rate 9.0 ml/min) using a reverse phase ODS column (2 cm diameter, 25 cm length, PEGASIL ODS, Senshu Kagaku Co.) to give RKB-3134A. Recrystallization was further carried out from a mixed solvent of hexane/ethyl acetate/methanol to give a pure RKB-3134A (90 mg) as pale yellow powder. Physicochemical properties of RKB-3134A are shown below.
Insoluble in n-hexane or water.

Structure (SMILES): CC/C=C/C=C/C1=C(C)C(=O)C2(O1)C(=O)NC(O)(Cc1ccccc1)C2O (centres unmarked) [RKB-3134A]
- Solubility in methanol, acetone, or dimethyl sulfoxide (solvent: methanol, acetone, or dimethyl sulfoxide): easily soluble
- Solubility in n-hexane or water (solvent: n-hexane or water): Insoluble
